One series concerns the target hATX/ENPP2 (Homo sapiens, UniProt Q13822). The series can be described thus: hATX/ENPP2 biochemical assay using 16:0-LPC as substrate (Amplex Red/choline oxidase/HRP fluorescence). The conditions noted are these: hENPP2 2.5 nM, LPC (16:0) substrate. In outline:
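Enzyme preincubated with compounds 15 min at room temperature in 50 mM Tris-HCl pH 8.0, 140 mM NaCl, 5 mM CaCl2, 0.01% Triton X-100. Reaction started with 80 μM LPC (16:0) stock plus Amplex Red/choline oxidase/HRP mix; fluorescence (ex 530/em 590 nm) read kinetically. IC50 from slope between 60 and 70 min.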

The subject of series [1] is LPA 18:2 level in mouse plasma. The series can be described thus: In vitro LPA assay, reduction of LPA 18:2 level in mouse plasma (LC-MS/MS). Particulars: 2 hr at 37° C., LPA 18:2 reduction. The format is biochemical. The protocol: (§1) Autotaxin (ATX) plays an important role in lysophosphatidic acid (LPA) signaling. An in vitro LPA assay was conducted to determine IC50 values of the test compounds on reduction of LPA 18:2 level in rat or mouse plasma. This example describes the assay data (IC50 value ranges) of exemplary compounds from LPA assays using mouse and rat plasma. Compound GPLG-1690 was assayed as a reference compound.
(§2) The 10 mM DMSO stock solutions of test compounds and 4-fold serial dilutions of the test compounds were prepared at various concentrations. The diluted solutions of the compounds were diluted with 1×PBS (pH 7.5) buffer. 38 μL of rat or mouse plasma samples were mixed with 2 μL of the diluted solutions of the compounds or 2% DMSO solutions in 96-well plate (final 0.1% DMSO). After incubating for 2 hr at 37° C., 120 μL MeOH containing IS (250 ng/mL of LPA 17:0) was added to each well. Mixture was vortexed for 1 min, and then centrifuged for 30 min (4000 rpm, 4° C.). 100 μL supernatant was transferred to a 96-well plate containing 100 μL pure water and the plate was shaken for 10 min. 5 μL supernatant was injected into LC-MS/MS system. No calibration curve will be prepared for LPA 18:2 and all quantifications were performed based on peak area ratios (LPA 18:2/LPA 17:0). For each concentration of compound LPA data were expressed as percentage of reduction (% reduction) using the formula. 100−[((LPA ratio-LPA ratio in control sample after 0 hr incubation)/(LPA ratio in control sample after 2 hr incubation—LPA ratio in control sample after 0 hr incubation))*100]. Data

For series [2], the system named is LPA 18:2 level in rat plasma. The series can be described thus: In vitro LPA assay, reduction of LPA 18:2 level in rat plasma (LC-MS/MS). The series is classed as biochemical. The conditions noted are these: 2 hr at 37° C., LPA 18:2 reduction. The procedure: as §1, §2
Series [3] can be described thus: Mouse PK study (IV and PO). The format is in vivo. Particulars: male, C57BL/6, mouse, plasma, male C57BL/6 mice; for AUC(0-inf): IV 2 mg/kg and PO 10 mg/kg study; for bioavailability / Cmax: po, 10 mg/kg; for bioavailability: IV 2 mg/kg and PO 10 mg/kg, read-out: F % (bioavailability); for Cmax: PO group 10 mg/kg. The protocol:
This example describes the pharmacokinetic (PK) data obtained for various compounds of the present disclosure, from studies using mice. The following PK parameters were calculated: • Bioavailability (F %) were calculated using the linear/log trapezoidal rule • Peak plasma concentrations (Cmax (ng/mL)) were taken directly from the plasma concentration vs. time profiles for the PO group • Area under the curve e.g., the area under the concentration curve from time 0 to infinity (AUC0-inf(ng*h/mL)). Experimental Procedures
After intravenous (IV) and oral (PO) administration at 2 mg/kg and 10 mg/kg to male C57BL/6 mice, respectively, the blood samples were collected at the designed sampling time points. All blood samples were transferred into pre-chilled commercial polyethylene microcentrifuge tubes containing K2-EDTA as an anticoagulant. Samples were processed for plasma by centrifugation. Plasma samples was transferred into polypropylene tubes pre-chilled on dry ice and then quickly frozen over dry ice and kept at −70±10° C. until LC-MS/MS analysis. Mice plasma samples were analyzed using qualified bioanalytical methods based on protein precipitation followed by LC-MS/MS analysis. Individual plasma concentration data of each compound was subjected to noncompartmental pharmacokinetic analysis using Phoenix WinNonlin™. Nominal doses were used for pharmacokinetic parameters calculation.

As a reminder, the IC50 is the concentration that inhibits the measured activity by half. A lower IC50 goes with inhibition by little substance. For orientation: AUC(0-inf) means total exposure, with the tail of the curve extrapolated. The low end stands for less exposure, the high end for more exposure. For orientation: bioavailability means the share of a dose that reaches the circulation, judged against a reference dose that is usually intravenous. Usually Cmax stands for the maximum level reached in the sampled fluid or tissue. `CCc1nc2ccc(-c3ccc(N4CCC(C(=O)N5CC(O)C5)CC4)nc3)cn2c1N(C)c1nc(-c2ccc(F)cc2)c(C#N)s1` [Compound 120, 2-((2-ethyl-6-(6-(4-(3-hydroxyazetidine-1-carbonyl)piperidin-1-yl)pyridin-3-yl)imidazo[1,2-a]pyridin-3-yl)(methyl)amino)-4-(4-fluorophenyl) thiazole-5-carbonitrile] registered a half-maximal inhibitory concentration (IC50) against hATX/ENPP2 of at most 20 nM. In addition, the 50% inhibitory concentration (IC50) in series [1] lay within 200 to 800 nM. In series [2], this compound registered an IC50 of 200 to 800 nM. Further, in series [3], the AUC(0-inf) stood at 50500 ng·h/mL, the bioavailability was found to be 40.8% and the Cmax came to 8470 ng/mL.
For the compound `CCc1nc2ccc(-c3cnc(N4CCC(C(=O)N5CCC5)CC4)nc3)cn2c1N(C)c1nc(-c2ccc(F)cc2)c(C#N)s1` [Compound 123, 2-((6-(2-(4-(azetidine-1-carbonyl)piperidin-1-yl)pyrimidin-5-yl)-2-ethylimidazo[1,2-a]pyridin-3-yl)(methyl)amino)-4-(4-fluorophenyl)thiazole-5-carbonitrile], the concentration for half-maximal inhibition (IC50) against hATX/ENPP2 is at most 20 nM. Also, the half-maximal inhibitory concentration (IC50) in series [1] fell in the range of 200 to 800 nM. For the same compound, the concentration for half-maximal inhibition (IC50) in series [2] fell in the range of 200 to 800 nM. In series [3], the area under the curve AUC(0-inf) came to 61000 ng·h/mL, the bioavailability amounted to 55.7% and the Cmax amounted to 7750 ng/mL.
On to `CCc1nc2ccc(-c3ccc(N4CC(C(=O)N5CCC5)C4)nc3)cn2c1N(C)c1nc(-c2ccc(F)cc2)c(C#N)s1` [Compound 124, 2-((6-(6-(3-(azetidine-1-carbonyl)azetidin-1-yl)pyridin-3-yl)-2-ethylimidazo[1,2-a]pyridin-3-yl)(methyl)amino)-4-(4-fluorophenyl)thiazole-5-carbonitrile], for which the IC50 against hATX/ENPP2 was in the range of 20 to 200 nM; in series [1], 200 to 800 nM; in series [2] it was 200 to 800 nM. For the same compound, in series [3], the total exposure AUC(0-inf) was 13100 ng·h/mL. Moreover, in series [3], the bioavailability amounted to 40%. This compound returned a Cmax in series [3] of 3820 ng/mL.
Consider `CCc1nc2ccc(-c3ccc(N4CCC(C(=O)N5CCOCC5)CC4)nc3)cn2c1N(C)c1nc(-c2ccc(F)cc2)c(C#N)s1` [Compound 126, 2-((2-ethyl-6-(6-(4-(morpholine-4-carbonyl)piperidin-1-yl)pyridin-3-yl)imidazo[1,2-a]pyridin-3-yl)(methyl)amino)-4-(4-fluorophenyl)thiazole-5-carbonitrile], for which the values for the IC50 (on hATX/ENPP2; in series [1]; in series [2]) were at most 20 nM, 200 to 800 nM and at most 200 nM, respectively. This compound also had an AUC(0-inf) in series [3] of 38300 ng·h/mL. Further, the bioavailability in series [3] was determined as 59.2%. The same compound came in with a Cmax in series [3] of 5580 ng/mL.
